{"source": "patent US7964607B2", "about": "“Pyrazolo[3,4-d]pyrimidine compounds” (Pfizer Inc., priority 2007, dated 2011)", "data": [{"target": "T1, human recombinant PDE9 enzyme (Homo sapiens, UniProt O76083)", "T1 construct": "made in house; host or cells: SF-9 insect cells", "experiment": "Phosphodiesterase 9 (PDE9) inhibitory activity, Scintillation Proximity (SPA) assay", "format": "biochemical", "details": "not given", "method": "(§1) Phosphodiesterase 9 (PDE9) Inhibitory Activity The PDE9 assay was performed using the Phosphodiesterase Scintillation Proximity (SPA) assay (GE Healthcare Life Sciences). […] The human recombinant PDE9 enzyme was generated in SF-9 cells, the cell pellets were sonicated in buffer (20 mM TRIS, 2 mM benzamidine, 1 mM EDTA, 250 mM sucrose, 100 μM PMSF, pH 7.5 with HCl), centrifuged at 40,000×g for 20 min at 4° C. The supernatants were stored at −80° C. […] Test compounds were dissolved in DMSO, diluted in DI H2O and serially diluted in 20% DMSO/80% H2O, for a final concentration of 2% DMSO. For the assay the PDE9 was diluted with assay buffer such that 20% or less of the substrate was hydrolyzed to 5′GMP. Each assay well contained 10 μl of test compound or solvent, 40 μl of [^3H]CGMP and 50 μl of enzyme, background was determined by a high concentration of a PDE inhibitor. The assay was initiated with the addition of the enzyme and carried out at room temperature for 30 min. […] The plates were sealed, vortexed, allowed to set for >300 min, then counted in a Wallac TriLux MicroBeta LSC.", "units": {"IC50": "nM"}, "values": [{"smiles": "CCC1CN(Cc2ccccc2)CC1c1nc2c(cnn2C2CCOCC2)c(=O)[nH]1", "note": "(racemic) [97(a), 6-[(3,4-trans)-1-benzyl-4-ethylpyrrolidin-3-yl]-1-(tetrahydro-2H-pyran-4-yl)-1,5-dihydro-4H-pyrazolo[3,4-d]pyrimidin-4-one]", "IC50": 7.2}]}, {"target": "T1, human recombinant PDE9 enzyme", "experiment": "Phosphodiesterase 9 (PDE9) inhibitory activity, Scintillation Proximity (SPA) assay", "format": "biochemical", "details": "human recombinant PDE9 from SF-9 cells; 50 nM [3H]cGMP; room temperature, 30 min; Examples 3-114; read-out: G5678A (U): IC50", "method": "as §1", "units": {"IC50": "nM"}, "values": [{"smiles": "C[C@@H]1CN(c2nccc(C(F)(F)F)n2)C[C@H]1c1nc2c(cnn2C2CCCC2)c(=O)[nH]1", "note": "(racemic) [Example 4, 1-cyclopentyl-6-{(3,4-trans)-4-methyl-1-[4-(trifluoromethyl)pyrimidin-2-yl]pyrrolidin-3-yl}-1,5-dihydro-4H-pyrazolo[3,4-d]pyrimidin-4-one]", "IC50": 624}, {"smiles": "C[C@@H]1CN(c2ncccn2)C[C@H]1c1nc2c(cnn2C2CCCC2)c(=O)[nH]1", "note": "(racemic) [Example 5, 1-cyclopentyl-6-[(3,4-trans)-4-methyl-1-pyrimidin-2-ylpyrrolidin-3-yl]-1,5-dihydro-4H-pyrazolo[3,4-d]pyrimidin-4-one]", "IC50": 558}, {"smiles": "C[C@@H]1CN(C(=O)c2ccccc2)C[C@H]1c1nc2c(cnn2C2CCCC2)c(=O)[nH]1", "note": "(racemic) [Example 6, 6-[(3,4-trans)-1-benzoyl-4-methylpyrrolidin-3-yl]-1-cyclopentyl-1,5-dihydro-4H-pyrazolo[3,4-d]pyrimidin-4-one]", "IC50": 57.1}, {"smiles": "C[C@@H]1CN(Cc2cccnc2)C[C@H]1c1nc2c(cnn2C2CCCC2)c(=O)[nH]1", "note": "(racemic) [Example 7, 1-cyclopentyl-6-[(3,4-trans)-4-methyl-1-(pyridin-3-ylmethyl)pyrrolidin-3-yl]-1,5-dihydro-4H-pyrazolo[3,4-d]pyrimidin-4-one]", "IC50": 11.6}, {"smiles": "C[C@@H]1CN(Cc2cccc(C(F)(F)F)c2)C[C@H]1c1nc2c(cnn2C2CCCC2)c(=O)[nH]1", "note": "(racemic) [Example 8, 1-cyclopentyl-6-{(3,4-trans)-4-methyl-1-[3-(trifluoromethyl)benzyl]pyrrolidin-3-yl}-1,5-dihydro-4H-pyrazolo[3,4-d]pyrimidin-4-one]", "IC50": 11.2}, {"smiles": "C[C@@H]1CN(Cc2ccc3ccccc3n2)C[C@H]1c1nc2c(cnn2C2CCCC2)c(=O)[nH]1", "note": "(racemic) [Example 9, 1-cyclopentyl-6-[(3,4-trans)-4-methyl-1-(quinolin-2-ylmethyl)pyrrolidin-3-yl]-1,5-dihydro-4H-pyrazolo[3,4-d]pyrimidin-4-one]", "IC50": 2.84}, {"smiles": "C[C@@H]1CN(Cc2ccnc3ccccc23)C[C@H]1c1nc2c(cnn2C2CCCC2)c(=O)[nH]1", "note": "(racemic) [Example 10, 1-cyclopentyl-6-[(3,4-trans)-4-methyl-1-(quinolin-4-ylmethyl)pyrrolidin-3-yl]-1,5-dihydro-4H-pyrazolo[3,4-d]pyrimidin-4-one]", "IC50": 4.98}, {"smiles": "C[C@@H]1CN(Cc2ccc(C(F)(F)F)nc2)C[C@H]1c1nc2c(cnn2C2CCCC2)c(=O)[nH]1", "note": "(racemic) [Example 11, 1-cyclopentyl-6-[(3,4-trans)-4-methyl-1-{[6-(trifluoromethyl)pyridin-3-yl]methyl}pyrrolidin-3-yl]-1,5-dihydro-4H-pyrazolo[3,4-d]pyrimidin-4-one]", "IC50": 18.9}, {"smiles": "C[C@@H]1CN(Cc2cnc3ccccc3n2)C[C@H]1c1nc2c(cnn2C2CCCC2)c(=O)[nH]1", "note": "(racemic) [Example 12, 1-cyclopentyl-6-[(3,4-trans)-4-methyl-1-(quinoxalin-2-ylmethyl)pyrrolidin-3-yl]-1,5-dihydro-4H-pyrazolo[3,4-d]pyrimidin-4-one]", "IC50": 7.23}, {"smiles": "C[C@@H]1CN(Cc2ccc3nccnc3c2)C[C@H]1c1nc2c(cnn2C2CCCC2)c(=O)[nH]1", "note": "(racemic) [Example 13, 1-cyclopentyl-6-[(3,4-trans)-4-methyl-1-(quinoxalin-6-ylmethyl)pyrrolidin-3-yl]-1,5-dihydro-4H-pyrazolo[3,4-d]pyrimidin-4-one]", "IC50": 6.61}, {"smiles": "C[C@@H]1CN(Cc2cncnc2)C[C@H]1c1nc2c(cnn2C2CCCC2)c(=O)[nH]1", "note": "(racemic) [Example 14, 1-cyclopentyl-6-[(3,4-trans)-4-methyl-1-(pyrimidin-5-ylmethyl)pyrrolidin-3-yl]-1,5-dihydro-4H-pyrazolo[3,4-d]pyrimidin-4-one]", "IC50": 26}, {"smiles": "Cc1ncccc1CN1C[C@@H](C)[C@H](c2nc3c(cnn3C3CCCC3)c(=O)[nH]2)C1", "note": "(racemic) [Example 17, 1-cyclopentyl-6-{(3,4-trans)-4-methyl-1-[(2-methylpyridin-3-yl)methyl]pyrrolidin-3-yl}-1,5-dihydro-4H-pyrazolo[3,4-d]pyrimidin-4-one]", "IC50": 16.2}, {"smiles": "C[C@@H]1CN(Cc2cccc3cccnc23)C[C@H]1c1nc2c(cnn2C2CCCC2)c(=O)[nH]1", "note": "(racemic) [Example 18, 1-cyclopentyl-6-[(3,4-trans)-4-methyl-1-(quinolin-8-ylmethyl)pyrrolidin-3-yl]-1,5-dihydro-4H-pyrazolo[3,4-d]pyrimidin-4-one]", "IC50": 8.26}, {"smiles": "C[C@@H]1CN(Cc2cnc3ccccc3c2)C[C@H]1c1nc2c(cnn2C2CCCC2)c(=O)[nH]1", "note": "(racemic) [Example 19, 1-cyclopentyl-6-[(3,4-trans)-4-methyl-1-(quinolin-3-ylmethyl)pyrrolidin-3-yl]-1,5-dihydro-4H-pyrazolo[3,4-d]pyrimidin-4-one]", "IC50": 2.68}, {"smiles": "Cc1ccc(CN2C[C@@H](C)[C@H](c3nc4c(cnn4C4CCCC4)c(=O)[nH]3)C2)cn1", "note": "(racemic) [Example 20, 1-cyclopentyl-6-{(3,4-trans)-4-methyl-1-[(6-methylpyridin-3-yl)methyl]pyrrolidin-3-yl}-1,5-dihydro-4H-pyrazolo[3,4-d]pyrimidin-4-one]", "IC50": 7.06}, {"smiles": "CC(C)[C@@H]1CN(Cc2ccccc2)C[C@H]1c1nc2c(cnn2C2CCCC2)c(=O)[nH]1", "note": "(racemic) [Example 21, 6-[(3,4-trans)-1-benzyl-4-isopropylpyrrolidin-3-yl]-1-cyclopentyl-1,5-dihydro-4H-pyrazolo[3,4-d]pyrimidin-4-one]", "IC50": 34.5}, {"smiles": "Cc1nn(C2CCCC2)c2nc([C@@H]3CN(Cc4ccccc4)C[C@H]3C)[nH]c(=O)c12", "note": "(racemic) [Example 22, 6-[(3,4-trans)-1-benzyl-4-methylpyrrolidin-3-yl]-1-cyclopentyl-3-methyl-1,5-dihydro-4H-pyrazolo[3,4-d]pyrimidin-4-one]", "IC50": 43.6}, {"smiles": "C[C@@H]1CN(CCc2ccccc2)C[C@H]1c1nc2c(cnn2C2CCCC2)c(=O)[nH]1", "note": "(racemic) [Example 24, 1-cyclopentyl-6-[(3,4-trans)-4-methyl-1-(2-phenylethyl)pyrrolidin-3-yl]-1,5-dihydro-4H-pyrazolo[3,4-d]pyrimidin-4-one]", "IC50": 119}, {"smiles": "COc1ccc(CN2C[C@@H](C)[C@H](c3nc4c(cnn4C4CCCC4)c(=O)[nH]3)C2)cn1", "note": "(racemic) [Example 25, 1-cyclopentyl-6-{(3,4-trans)-1-[(6-methoxypyridin-3-yl)methyl]-4-methylpyrrolidin-3-yl}-1,5-dihydro-4H-pyrazolo[3,4-d]pyrimidin-4-one]", "IC50": 9.07}, {"smiles": "C[C@@H]1CN(Cc2ccccn2)C[C@H]1c1nc2c(cnn2C2CCCC2)c(=O)[nH]1", "note": "(racemic) [Example 26, 1-cyclopentyl-6-[(3,4-trans)-4-methyl-1-(pyridin-2-ylmethyl)pyrrolidin-3-yl]-1,5-dihydro-4H-pyrazolo[3,4-d]pyrimidin-4-one]", "IC50": 11.4}, {"smiles": "Cc1cccnc1CN1C[C@@H](C)[C@H](c2nc3c(cnn3C3CCCC3)c(=O)[nH]2)C1", "note": "(racemic) [Example 27, 1-cyclopentyl-6-{(3,4-trans)-4-methyl-1-[(3-methylpyridin-2-yl)methyl]pyrrolidin-3-yl}-1,5-dihydro-4H-pyrazolo[3,4-d]pyrimidin-4-one]", "IC50": 7.45}, {"smiles": "CC[C@@H]1CN(Cc2ccccc2)C[C@H]1c1nc2c(cnn2C2CCCC2)c(=O)[nH]1", "note": "(racemic) [Example 28, 6-[(3,4-trans)-1-benzyl-4-ethylpyrrolidin-3-yl]-1-cyclopentyl-1,5-dihydro-4H-pyrazolo[3,4-d]pyrimidin-4-one]", "IC50": 6.86}, {"smiles": "O=c1[nH]c([C@@H]2CN(Cc3ccccc3)C[C@H]2C2CC2)nc2c1cnn2C1CCCC1", "note": "(racemic) [Example 29, 6-[(3,4-trans)-1-benzyl-4-cyclopropylpyrrolidin-3-yl]-1-cyclopentyl-1,5-dihydro-4H-pyrazolo[3,4-d]pyrimidin-4-one]", "IC50": 2.17}, {"smiles": "CC(C)n1ncc2c(=O)[nH]c([C@@H]3CN(Cc4ccc5ccccc5n4)C[C@H]3C)nc21", "note": "(racemic) [Example 32, 1-isopropyl-6-[(3,4-trans)-4-methyl-1-(quinolin-2-ylmethyl)pyrrolidin-3-yl]-1,5-dihydro-4H-pyrazolo[3,4-d]pyrimidin-4-one]", "IC50": 5.19}, {"smiles": "CC(C)n1ncc2c(=O)[nH]c([C@@H]3CN(Cc4ccc5nccnc5c4)C[C@H]3C)nc21", "note": "(racemic) [Example 33, 1-isopropyl-6-[(3,4-trans)-4-methyl-1-(quinoxalin-6-ylmethyl)pyrrolidin-3-yl]-1,5-dihydro-4H-pyrazolo[3,4-d]pyrimidin-4-one]", "IC50": 6.29}, {"smiles": "CC(C)n1ncc2c(=O)[nH]c([C@@H]3CN(Cc4cnc5ccccc5c4)C[C@H]3C)nc21", "note": "(racemic) [Example 34, 1-isopropyl-6-[(3,4-trans)-4-methyl-1-(quinolin-3-ylmethyl)pyrrolidin-3-yl]-1,5-dihydro-4H-pyrazolo[3,4-d]pyrimidin-4-one]", "IC50": 4.33}]}]}
